From patent publication US5312816A, “Method of combatting osteoporosis in mammalian subjects, utilizing organic boron compounds” (priority 1993, dated 1994)
pIC50: −log10 of the molar value.

Tests used:
[1] = biological target: Acid phosphatase; assay: Mouse hepatic lysosomal acid phosphatase activity; type: biochemical; details: Table V; mouse hepatic, 60 min incubation
Text: (§1) 1. Cf1 male mouse hepatic 10% homogenates in 0.25M sucrose+0.001MEDTA,pH 7.2.
Lysosomal Enzymes - free and total [triton X-100].
(§2) 1. Acid phosphatase -beta glycerol-3-phosphate, pH 5.0, released IP 720 nm.
Acid phosphatase activity -

[2] = system: Trypsin; assay: Mouse hepatic trypsin activity; type: biochemical; details: Table VI; mouse hepatic, 60 min incubation; read-out: Trypsin IC50
Text: as §1
1. Trypsin- N-benzoyl-L-arginine ethyl ester pH 8.0, hydrolytic product 253 nm.

[3] = system: Acid phosphatase; assay: Mouse macrophage acid phosphatase activity; type: cell-based; details: Table VII; mouse macrophage cultured cells, 60 min incubation; read-out: Acid Phosphatase IC50
[4] = system: Prostaglandin cyclooxygenase; assay: Mouse macrophage prostaglandin cyclooxygenase activity; type: cell-based; details: Table VIII; mouse macrophages, 60 min incubation; read-out: Prostaglandin Cyclooxygenase IC50
Text: 3. Mouse macrophages J774A.1 BALB/c
Prostaglandin synthetase purified beef seminal vesicle ^3 H arachidonic acid (86.2 Ci/mmol), tlc separation.

[5] = system: Pg-E2 synthesis; assay: 3H-Arachidonic acid conversion to Pg-E2, macrophage; type: cell-based, mouse
[6] = system: Acid phosphatase; assay: Human osteoporosis fibroblasts acid phosphatase activity; type: cell-based
Text: as §2

[7] = system: lysosomal and proteolytic enzymes; assay: Osteoporosis fibroblasts lysosomal and proteolytic enzymes (statement); type: cell-based, human
[8] = biological target: T1, Porcine Pancreatic Elastase (Sus scrofa, UniProt P00772); assay: Porcine pancreatic elastase activity in vitro; type: biochemical; details: Table IX; commercial enzyme preparation
T1 construct: purchased; host or cells: porcine pancreas
Text: 2. Elastase- N-succinyl-L-alanyl-L-alanine-p-nitroanilide, pH 8.0, p-nitro anilide 410 nm.

[9] = system: Cf1 male mice; assay: Writhing reflex, 0.6% acetic acid; type: in vivo; details: Mus musculus, ip; Table IV

T1 sequence (P00772 27-266): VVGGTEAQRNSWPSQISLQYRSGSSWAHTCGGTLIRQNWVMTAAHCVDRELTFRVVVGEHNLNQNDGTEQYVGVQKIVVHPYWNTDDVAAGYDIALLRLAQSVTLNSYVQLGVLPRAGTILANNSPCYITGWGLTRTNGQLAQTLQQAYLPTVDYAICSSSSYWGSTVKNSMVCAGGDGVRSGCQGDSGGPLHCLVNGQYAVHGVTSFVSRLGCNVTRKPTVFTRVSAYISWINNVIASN

## CCCCCCCCCCCCCCCC[N+](C)(C)[BH2-]C(=O)O [Compound 7, N,N-Dimethylhexadecylamine-carboxyborane]
[1]
  pIC50: 5.05
[2]
  pIC50: 5.94
[3]
  pIC50: 6.03
[4]
  pIC50: 5.59
[5]
  macrophage Pg-E2 synthesis reduced: 20%
[5]; macrophage
  3H-Arachidonic acid conversion to Pg-E2 reduced: 29%
[6]; Table VIIIA, osteoporosis fibroblasts in vitro, read-out: Acid Phosphatase IC-50
  pIC50: 4.78
[6]; Table X, human osteoporosis fibroblasts, read-out: Acid Phosphatase IC50
  pIC50: 4.78
[7]
  inhibition of lysosomal and proteolytic enzymes of osteoporosis fibroblasts: potent inhibitors
[8]
  pIC50: 4.30
[9]
  response vs control in vivo at 20 mg/kg: 54%
